According to ChEMBL document CHEMBL3046617, “Effects of fungicides on in vitro spore germination and mycelial growth of the phytopathogens Leptosphaeria maculans and L. biglobosa (phoma stem canker of oilseed rape)” (2010):
Values after ≈ are worked out from the molar mass of the structure shown. Active and inactive are the calls of the source. The calls are words filed in the database; no cut-off is given here.

How the values were obtained:
Plenodomus lingam [1] = experiment: Antifungal activity against Leptosphaeria maculans; assay type: functional; conditions: read-out: ED50 (the source's name)
Plenodomus biglobosus [2] = experiment: Antifungal activity against Leptosphaeria biglobosa assessed as reduction of germ tube length at 3 ug/ml after 22 hr relative to control; assay type: functional; parameters: scale not given: the % may be the effect or the level left
Plenodomus lingam [3] = experiment: Antifungal activity against Leptosphaeria maculans assessed as inhibition of mycelial growth after 17 days; assay type: functional; conditions: 408 h, read-out: ED50 (the source's name)
Plenodomus lingam [4] = experiment: Antifungal activity against Leptosphaeria maculans assessed as reduction of germ tube length at 1.5 ug/ml after 22 hr relative to control; assay type: functional; parameters: scale not given: the % may be the effect or the level left
Plenodomus biglobosus [5] = experiment: Antifungal activity against Leptosphaeria biglobosa assessed as reduction of germ tube length at 0.75 ug/ml after 22 hr relative to control; assay type: functional; parameters: scale not given: the % may be the effect or the level left
Plenodomus biglobosus [6] = experiment: Antifungal activity against Leptosphaeria biglobosa assessed as reduction of conidia production at 0.75 to 3 ug/ml after 2 weeks; assay type: functional, organism-based
Plenodomus biglobosus [7] = experiment: Antifungal activity against Leptosphaeria biglobosa assessed as reduction of germ tube length at 1.5 ug/ml after 22 hr relative to control; assay type: functional; parameters: scale not given: the % may be the effect or the level left
Plenodomus lingam [8] = experiment: Antifungal activity against Leptosphaeria maculans assessed as reduction of germ tube length at 3 ug/ml after 22 hr relative to control; assay type: functional; parameters: scale not given: the % may be the effect or the level left
Plenodomus lingam [9] = experiment: Antifungal activity against Leptosphaeria maculans assessed as reduction of conidia production at 0.75 to 3 ug/ml after 2 weeks; assay type: functional, organism-based
Plenodomus lingam [10] = experiment: Antifungal activity against Leptosphaeria maculans assessed as viable ascospore at 0.75 to 3 ug/ml after 1 week; assay type: functional, organism-based
Plenodomus biglobosus [11] = experiment: Antifungal activity against Leptosphaeria biglobosa assessed as viable conidia at 0.75 to 3 ug/ml after 1 week; assay type: functional, organism-based
Plenodomus lingam [12] = experiment: Antifungal activity against Leptosphaeria maculans assessed as ascospore germination at 0.75 to 3 ug/ml after 22 hr; assay type: functional
Plenodomus biglobosus [13] = experiment: Antifungal activity against Leptosphaeria biglobosa assessed as ascospore germination at 0.75 to 3 ug/ml after 22 hr; assay type: functional
Plenodomus lingam [14] = experiment: Antifungal activity against Leptosphaeria maculans assessed as viable conidia at 0.75 to 3 ug/ml after 1 week; assay type: functional, organism-based
Plenodomus biglobosus [15] = experiment: Antifungal activity against Leptosphaeria biglobosa assessed as viable ascospore at 0.75 to 3 ug/ml after 1 week; assay type: functional, organism-based
Plenodomus biglobosus [16] = experiment: Antifungal activity against Leptosphaeria biglobosa assessed as inhibition of conidia germination at 0.75 to 3 ug/ml after 22 hr; assay type: functional, organism-based
Plenodomus lingam [17] = experiment: Antifungal activity against Leptosphaeria maculans assessed as inhibition of conidia germination at 0.75 to 3 ug/ml after 22 hr; assay type: functional, organism-based
Plenodomus lingam [18] = experiment: Antifungal activity against Leptosphaeria maculans assessed as reduction of germ tube length at 0.75 ug/ml after 22 hr relative to control; assay type: functional; parameters: scale not given: the % may be the effect or the level left
Plenodomus biglobosus [19] = experiment: Antifungal activity against Leptosphaeria biglobosa assessed as inhibition of mycelial growth after 7 days; assay type: functional; conditions: 168 h, read-out: ED50 (the source's name)
Plenodomus lingam [20] = experiment: Antifungal activity against Leptosphaeria maculans assessed as inhibition of conidia germination at 4 ug/ml after 22 hr; assay type: functional
Plenodomus biglobosus [21] = experiment: Antifungal activity against Leptosphaeria biglobosa assessed as reduction of germ tube length at 2 ug/ml after 22 hr relative to control; assay type: functional; parameters: scale not given: the % may be the effect or the level left
Plenodomus lingam [22] = experiment: Antifungal activity against Leptosphaeria maculans assessed as viable ascospore at 1 to 4 ug/ml after 1 week; assay type: functional, organism-based
Plenodomus lingam [23] = experiment: Antifungal activity against Leptosphaeria maculans assessed as reduction of germ tube length at 1 ug/ml after 22 hr relative to control; assay type: functional; parameters: scale not given: the % may be the effect or the level left
Plenodomus biglobosus [24] = experiment: Antifungal activity against Leptosphaeria biglobosa assessed as reduction of germ tube length at 4 ug/ml after 22 hr relative to control; assay type: functional; parameters: scale not given: the % may be the effect or the level left
Plenodomus lingam [25] = experiment: Antifungal activity against Leptosphaeria maculans assessed as reduction of germ tube length at 4 ug/ml after 22 hr relative to control; assay type: functional; parameters: scale not given: the % may be the effect or the level left
Plenodomus lingam [26] = experiment: Antifungal activity against Leptosphaeria maculans assessed as viable conidia at 2 to 4 ug/ml after 1 week; assay type: functional, organism-based
Plenodomus lingam [27] = experiment: Antifungal activity against Leptosphaeria maculans assessed as ascospore germination at 1 to 4 ug/ml after 22 hr; assay type: functional
Plenodomus biglobosus [28] = experiment: Antifungal activity against Leptosphaeria biglobosa assessed as viable ascospore at 1 to 4 ug/ml after 1 week; assay type: functional, organism-based
Plenodomus biglobosus [29] = experiment: Antifungal activity against Leptosphaeria biglobosa assessed as reduction of conidia production at 1 to 4 ug/ml after 2 weeks; assay type: functional, organism-based
Plenodomus biglobosus [30] = experiment: Antifungal activity against Leptosphaeria biglobosa assessed as ascospore germination at 1 to 4 ug/ml after 22 hr; assay type: functional
Plenodomus biglobosus [31] = experiment: Antifungal activity against Leptosphaeria biglobosa assessed as inhibition of conidia germination at 4 ug/ml after 22 hr; assay type: functional
Plenodomus biglobosus [32] = experiment: Antifungal activity against Leptosphaeria biglobosa assessed as viable conidia at 2 to 4 ug/ml after 1 week; assay type: functional, organism-based
Plenodomus lingam [33] = experiment: Antifungal activity against Leptosphaeria maculans assessed as reduction of germ tube length at 2 ug/ml after 22 hr relative to control; assay type: functional; parameters: scale not given: the % may be the effect or the level left
Plenodomus lingam [34] = experiment: Antifungal activity against Leptosphaeria maculans assessed as reduction of conidia production at 1 to 4 ug/ml after 2 weeks; assay type: functional, organism-based
Plenodomus biglobosus [35] = experiment: Antifungal activity against Leptosphaeria biglobosa assessed as reduction of germ tube length at 1 ug/ml after 22 hr relative to control; assay type: functional; parameters: scale not given: the % may be the effect or the level left
Plenodomus biglobosus [36] = experiment: Antifungal activity against Leptosphaeria biglobosa assessed as ascospore germination at 0.25 to 1 ug/ml after 22 hr; assay type: functional
Plenodomus lingam [37] = experiment: Antifungal activity against Leptosphaeria maculans assessed as reduction of germ tube length at 0.5 ug/ml after 22 hr relative to control; assay type: functional; parameters: scale not given: the % may be the effect or the level left
Plenodomus lingam [38] = experiment: Antifungal activity against Leptosphaeria maculans assessed as reduction of conidia production at 0.25 to 1 ug/ml after 2 weeks; assay type: functional, organism-based
Plenodomus lingam [39] = experiment: Antifungal activity against Leptosphaeria maculans assessed as reduction of germ tube length at 0.25 ug/ml after 22 hr relative to control; assay type: functional; parameters: scale not given: the % may be the effect or the level left
Plenodomus lingam [40] = experiment: Antifungal activity against Leptosphaeria maculans assessed as ascospore germination at 0.25 to 1 ug/ml after 22 hr; assay type: functional
Plenodomus biglobosus [41] = experiment: Antifungal activity against Leptosphaeria biglobosa assessed as viable conidia at 0.25 to 1 ug/ml after 1 week; assay type: functional, organism-based
Plenodomus biglobosus [42] = experiment: Antifungal activity against Leptosphaeria biglobosa assessed as viable ascospore at 0.25 to 1 ug/ml after 1 week; assay type: functional, organism-based
Plenodomus lingam [43] = experiment: Antifungal activity against Leptosphaeria maculans assessed as viable conidia at 0.25 to 1 ug/ml after 1 week; assay type: functional, organism-based
Plenodomus biglobosus [44] = experiment: Antifungal activity against Leptosphaeria biglobosa assessed as inhibition of conidia germination at 0.25 to 1 ug/ml after 22 hr; assay type: functional, organism-based
Plenodomus lingam [45] = experiment: Antifungal activity against Leptosphaeria maculans assessed as inhibition of conidia germination at 0.25 to 1 ug/ml after 22 hr; assay type: functional, organism-based
Plenodomus lingam [46] = experiment: Antifungal activity against Leptosphaeria maculans assessed as viable ascospore at 0.25 to 1 ug/ml after 1 week; assay type: functional, organism-based
Plenodomus biglobosus [47] = experiment: Antifungal activity against Leptosphaeria biglobosa assessed as reduction of germ tube length at 0.5 ug/ml after 22 hr relative to control; assay type: functional; parameters: scale not given: the % may be the effect or the level left
Plenodomus biglobosus [48] = experiment: Antifungal activity against Leptosphaeria biglobosa assessed as reduction of germ tube length at 0.25 ug/ml after 22 hr relative to control; assay type: functional; parameters: scale not given: the % may be the effect or the level left
Plenodomus biglobosus [49] = experiment: Antifungal activity against Leptosphaeria biglobosa assessed as reduction of conidia production at 0.25 to 1 ug/ml after 2 weeks; assay type: functional, organism-based

OC(Cn1cncn1)(c1ccc(F)cc1)c1ccccc1F (stereo not drawn) [FLUTRIAFOL]
EC50 (Plenodomus lingam [1]): 0.45 µg/mL (≈ 1.49 µM)

CC(C)(C)C(O)(CCc1ccc(Cl)cc1)Cn1cncn1 (stereo not drawn) [TEBUCONAZOLE]
Activity (Plenodomus biglobosus [2]): 69.6% | EC50 (Plenodomus lingam [3]): 0.34 µg/mL (≈ 1.1 µM) | Activity (Plenodomus lingam [4]): 36.7% | Activity (Plenodomus biglobosus [5]): 64.3% | Activity (Plenodomus biglobosus [6]): Active | Activity (Plenodomus biglobosus [7]): 63.4% | Activity (Plenodomus lingam [8]): 43.2% | Activity (Plenodomus lingam [9]): inactive | Activity (Plenodomus lingam [10]): inactive | Activity (Plenodomus biglobosus [11]): inactive | Activity (Plenodomus lingam [12]): 96% | Activity (Plenodomus biglobosus [13]): 94% | Activity (Plenodomus lingam [14]): inactive | Activity (Plenodomus biglobosus [15]): inactive | inhibition (Plenodomus biglobosus [16]): Active | inhibition (Plenodomus lingam [17]): Active | Activity (Plenodomus lingam [18]): 44% | EC50 (Plenodomus biglobosus [19]): 1.45 µg/mL (≈ 4.71 µM)

CCCCNC(=O)n1c(NC(=O)OC)nc2ccccc21 [BENOMYL]
inhibition at 4 µg/mL (Plenodomus lingam [20]): > 80% | Activity (Plenodomus biglobosus [21]): 85.5% | Activity (Plenodomus lingam [22]): inactive | Activity (Plenodomus lingam [23]): 46.8% | Activity (Plenodomus biglobosus [24]): 81.6% | Activity (Plenodomus lingam [25]): 65.8% | Activity (Plenodomus lingam [26]): Active | Activity (Plenodomus lingam [27]): 96% | Activity (Plenodomus biglobosus [28]): inactive | Activity (Plenodomus biglobosus [29]): Active | Activity (Plenodomus biglobosus [30]): 94% | inhibition at 4 µg/mL (Plenodomus biglobosus [31]): 15% | Activity (Plenodomus biglobosus [32]): Active | Activity (Plenodomus lingam [33]): 68.3% | Activity (Plenodomus lingam [34]): inactive | Activity (Plenodomus biglobosus [35]): 4.5%

C[Si](Cn1cncn1)(c1ccc(F)cc1)c1ccc(F)cc1 [FLUSILAZOLE]
Activity (Plenodomus biglobosus [36]): 94% | Activity (Plenodomus lingam [37]): 22.1% | EC50 (Plenodomus lingam [3]): 0.27 µg/mL (≈ 0.856 µM) | Activity (Plenodomus lingam [38]): inactive | Activity (Plenodomus lingam [39]): 15.9% | Activity (Plenodomus lingam [40]): 96% | Activity (Plenodomus lingam [23]): 22.5% | Activity (Plenodomus biglobosus [41]): inactive | Activity (Plenodomus biglobosus [42]): inactive | Activity (Plenodomus lingam [43]): inactive | inhibition (Plenodomus biglobosus [44]): Active | inhibition (Plenodomus lingam [45]): Active | Activity (Plenodomus lingam [46]): inactive | EC50 (Plenodomus biglobosus [19]): 0.67 µg/mL (≈ 2.12 µM) | Activity (Plenodomus biglobosus [35]): 53.8% | Activity (Plenodomus biglobosus [47]): 56.3% | Activity (Plenodomus biglobosus [48]): 56.9% | Activity (Plenodomus biglobosus [49]): Active
